{"source": "ChEMBL document CHEMBL5052841", "about": "“Usp19 inhibitors for use in therapy” (2020)", "key": {"[1]": {"biological_target": "T1, Ubiquitin carboxyl-terminal hydrolase 19 (Homo sapiens, UniProt O94966)", "T1 sequence (O94966 whole entry)": "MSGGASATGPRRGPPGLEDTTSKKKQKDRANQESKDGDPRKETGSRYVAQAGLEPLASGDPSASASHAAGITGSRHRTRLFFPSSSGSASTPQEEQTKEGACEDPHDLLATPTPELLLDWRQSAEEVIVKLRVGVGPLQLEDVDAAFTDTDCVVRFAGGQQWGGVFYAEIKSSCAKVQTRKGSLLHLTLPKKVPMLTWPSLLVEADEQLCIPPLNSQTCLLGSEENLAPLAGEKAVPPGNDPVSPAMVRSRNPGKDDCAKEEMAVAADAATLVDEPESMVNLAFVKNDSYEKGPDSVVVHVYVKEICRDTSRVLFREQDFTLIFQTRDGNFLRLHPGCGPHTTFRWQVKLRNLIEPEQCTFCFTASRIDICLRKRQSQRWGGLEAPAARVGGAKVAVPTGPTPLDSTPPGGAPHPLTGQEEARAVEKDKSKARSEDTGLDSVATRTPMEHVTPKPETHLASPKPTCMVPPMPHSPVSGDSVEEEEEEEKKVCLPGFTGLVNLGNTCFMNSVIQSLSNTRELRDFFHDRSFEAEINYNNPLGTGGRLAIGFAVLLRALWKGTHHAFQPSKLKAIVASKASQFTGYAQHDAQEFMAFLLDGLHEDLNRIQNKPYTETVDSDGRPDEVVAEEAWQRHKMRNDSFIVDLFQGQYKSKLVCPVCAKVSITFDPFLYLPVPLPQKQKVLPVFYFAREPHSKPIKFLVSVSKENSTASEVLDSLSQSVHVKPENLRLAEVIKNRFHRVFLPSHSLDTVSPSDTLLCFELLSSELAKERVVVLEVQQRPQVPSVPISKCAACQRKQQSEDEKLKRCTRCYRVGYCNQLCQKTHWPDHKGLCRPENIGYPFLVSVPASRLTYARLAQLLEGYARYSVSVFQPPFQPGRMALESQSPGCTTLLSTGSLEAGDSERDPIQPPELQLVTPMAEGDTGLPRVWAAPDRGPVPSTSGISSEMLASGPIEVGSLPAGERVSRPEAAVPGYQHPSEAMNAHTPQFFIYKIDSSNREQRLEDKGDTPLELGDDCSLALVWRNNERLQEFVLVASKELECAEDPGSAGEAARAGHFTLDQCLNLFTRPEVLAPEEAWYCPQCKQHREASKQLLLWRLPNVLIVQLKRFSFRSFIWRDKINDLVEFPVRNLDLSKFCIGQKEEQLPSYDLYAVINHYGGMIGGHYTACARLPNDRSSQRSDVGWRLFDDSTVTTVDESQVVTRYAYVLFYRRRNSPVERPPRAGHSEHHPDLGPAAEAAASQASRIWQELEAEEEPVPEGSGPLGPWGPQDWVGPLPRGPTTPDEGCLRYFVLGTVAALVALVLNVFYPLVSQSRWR", "test": "Inhibition of C-terminal His6-tagged recombinant human USP19 using iso-peptide ubiquitin-Lys-TAMRA as substrate incubated for 30 mins and measured after 90 mins by fluorescent polarization assay"}, "[2]": {"biological_target": "T1, Ubiquitin carboxyl-terminal hydrolase 19", "test": "Inhibition of USP19 (unknown origin) in breast cancer cell measured by cell target engagement assay", "parameters": "species or system Breast cancer cell line"}, "[3]": {"biological_target": "T1, Ubiquitin carboxyl-terminal hydrolase 19", "test": "Inhibition of USP19 (unknown origin) in neuroblastoma cell measured by cell target engagement assay", "format": "cell-based"}, "[4]": {"test": "Inhibition of USP19 in mouse skeletal muscle cell measured by cell target engagement assay", "format": "cell-based"}, "Mus musculus [5]": {"test_system": "Mus musculus", "test": "Protection against sciatic nerve denervation-induced muscular atrophy in male C57BL/6 mouse assessed as lower loss of tibialis anterior muscle at 75 mg/kg, ip administered twice daily", "format": "functional, organism-based"}, "Mus musculus [6]": {"test_system": "Mus musculus", "test": "Protection against sciatic nerve denervation-induced muscular atrophy in male C57BL/6 mouse assessed as decrease in muscle wasting in gastrocnemius muscle at 75 mg/kg, ip administered twice daily", "format": "functional, organism-based"}, "Mus musculus [7]": {"test_system": "Mus musculus", "test": "Antiobesity activity in high-fat diet-induced obesity model of male C57BL/6J mouse assessed as reduction in epididymal fat mass at 5 to 25 mg/kg, ip administered twice daily", "format": "functional, organism-based", "conditions": "dose 5-25 mg/kg"}, "Mus musculus [8]": {"test_system": "Mus musculus", "test": "Antiobesity activity in high-fat diet-induced obesity model of male C57BL/6J mouse assessed as increase in liver mass at 5 to 25 mg/kg, ip administered twice daily", "format": "functional, organism-based", "conditions": "dose 5-25 mg/kg"}, "Mus musculus [9]": {"test_system": "Mus musculus", "test": "Antiobesity activity in high-fat diet-induced obesity model of male C57BL/6J mouse assessed as decrease in body weight gain at 5 to 25 mg/kg, ip administered twice daily", "format": "functional, organism-based", "conditions": "dose 5-25 mg/kg"}, "Mus musculus [10]": {"test_system": "Mus musculus", "test": "Antiobesity activity in high-fat diet-induced obesity model of male C57BL/6J mouse assessed as reduction in fat mass at 5 to 25 mg/kg, ip administered twice daily", "format": "functional", "parameters": "scale not given: the % may be the effect or the level left", "conditions": "dose 5-25 mg/kg"}, "Mus musculus [11]": {"test_system": "Mus musculus", "test": "Antiobesity activity in high-fat diet-induced obesity model of male C57BL/6J mouse assessed as reduction in lean mass at 5 to 25 mg/kg, ip administered twice daily", "format": "functional", "parameters": "scale not given: the % may be the effect or the level left", "conditions": "dose 5-25 mg/kg"}, "[12]": {"test": "Toxicity in high-fat diet-induced obesity model of male C57BL/6J mouse assessed as decrease in total body weight at 25 mg/kg, ip administered twice daily", "format": "organism-based", "parameters": "scale not given: the % may be the effect or the level left", "conditions": "in vivo"}, "[13]": {"test": "Toxicity in high-fat diet-induced obesity model of male C57BL/6J mouse assessed as effect on body water content at 5 mg/kg, ip administered twice daily", "format": "organism-based", "conditions": "in vivo"}, "[14]": {"test": "Toxicity in high-fat diet-induced obesity model of male C57BL/6J mouse assessed as increase in body water content at 25 mg/kg, ip administered twice daily", "format": "organism-based", "conditions": "in vivo"}, "[15]": {"test": "Toxicity in high-fat diet-induced obesity model of male C57BL/6J mouse assessed as reduction in body fat at 25 mg/kg, ip administered twice daily", "format": "organism-based", "parameters": "scale not given: the % may be the effect or the level left", "conditions": "in vivo"}, "[16]": {"test": "Toxicity in high-fat diet-induced obesity model of male C57BL/6J mouse assessed as decrease in total protein content at 25 mg/kg, ip administered twice daily", "format": "organism-based", "parameters": "scale not given: the % may be the effect or the level left", "conditions": "in vivo"}, "[17]": {"test": "Toxicity in high-fat diet-induced obesity model of male C57BL/6J mouse assessed as effect on total protein content at 5 mg/kg, ip administered twice daily", "format": "organism-based", "conditions": "in vivo"}, "[18]": {"test": "Toxicity in high-fat diet-induced obesity model of male C57BL/6J mouse assessed as decrease in total ash content at 25 mg/kg, ip administered twice daily", "format": "organism-based", "parameters": "scale not given: the % may be the effect or the level left", "conditions": "in vivo"}, "Mus musculus [19]": {"test_system": "Mus musculus", "test": "Anti-diabetic activity in high-fat diet-induced obesity model of male C57BL/6J mouse assessed as decrease in plasma glucose at 25 mg/kg, ip administered twice daily", "format": "functional, organism-based"}, "Mus musculus [20]": {"test_system": "Mus musculus", "test": "Anti-diabetic activity in high-fat diet-induced obesity model of male C57BL/6J mouse assessed as decrease in plasma insulin at 25 mg/kg, ip administered twice daily", "format": "functional, organism-based"}, "[21]": {"test": "Toxicity in high-fat diet-induced obesity model of male C57BL/6J mouse assessed as decrease in total body weight at 0.1 mg/kg, sc administered twice daily", "format": "organism-based", "parameters": "scale not given: the % may be the effect or the level left", "conditions": "in vivo"}, "[22]": {"test": "Toxicity in high-fat diet-induced obesity model of male C57BL/6J mouse assessed as decrease in body water content at 0.1 mg/kg, sc administered twice daily", "format": "organism-based", "parameters": "scale not given: the % may be the effect or the level left", "conditions": "in vivo"}, "[23]": {"test": "Toxicity in high-fat diet-induced obesity model of male C57BL/6J mouse assessed as reduction in body fat at 0.1 mg/kg, sc administered twice daily", "format": "organism-based", "parameters": "scale not given: the % may be the effect or the level left", "conditions": "in vivo"}, "[24]": {"test": "Toxicity in high-fat diet-induced obesity model of male C57BL/6J mouse assessed as decrease in total protein content at 0.1 mg/kg, sc administered twice daily", "format": "organism-based", "parameters": "scale not given: the % may be the effect or the level left", "conditions": "in vivo"}, "[25]": {"test": "Toxicity in high-fat diet-induced obesity model of male C57BL/6J mouse assessed as decrease in total ash content at 0.1 mg/kg, sc administered twice daily", "format": "organism-based", "parameters": "scale not given: the % may be the effect or the level left", "conditions": "in vivo"}}, "note": "Calls of active or inactive are those of the source. No cut-off for these calls is given here.", "data": [{"smiles": "C[C@H](CC1CCCCC1)C(=O)N1CC[C@@](O)(Cn2cc(C(=O)N3CCNCC3)c(-c3ccccc3)cc2=O)C2(CCCC2)C1", "values": [{"measurement": "IC50", "setting": "[1]", "value": "< 500", "unit": "nM"}, {"measurement": "EC50", "setting": "[2]", "value": 9.9, "unit": "nM"}, {"measurement": "EC50", "setting": "[3]", "value": 32.8, "unit": "nM"}, {"measurement": "EC50", "setting": "[4]", "value": 13.5, "unit": "nM"}, {"measurement": "Activity", "setting": "Mus musculus [5]", "value": "Active"}, {"measurement": "Activity", "setting": "Mus musculus [6]", "value": "Active"}, {"measurement": "Activity", "setting": "Mus musculus [7]", "value": "Active"}, {"measurement": "Activity", "setting": "Mus musculus [8]", "value": "Active"}, {"measurement": "Activity", "setting": "Mus musculus [9]", "value": "Active"}, {"measurement": "Activity", "setting": "Mus musculus [10]", "value": 24, "unit": "%"}, {"measurement": "Activity", "setting": "Mus musculus [11]", "value": -3, "unit": "%"}, {"measurement": "Activity", "setting": "[12]", "value": 13, "unit": "%"}, {"measurement": "Activity", "setting": "[13]", "value": "Non-Toxic"}, {"measurement": "Activity", "setting": "[14]", "value": 11.4, "unit": "%"}, {"measurement": "Activity", "setting": "[15]", "value": 24.9, "unit": "%"}, {"measurement": "Activity", "setting": "[16]", "value": -7.2, "unit": "%"}, {"measurement": "Activity", "setting": "[17]", "value": "Non-Toxic"}, {"measurement": "Activity", "setting": "[18]", "value": -9.6, "unit": "%"}, {"measurement": "Activity", "setting": "Mus musculus [19]", "value": "Active"}, {"measurement": "Activity", "setting": "Mus musculus [20]", "value": "Active"}]}, {"smiles": "CCCCCCCCCCCCCCCC(=O)N[C@@H](CCC(=O)NCCCC[C@H](NC(=O)[C@H](C)NC(=O)[C@H](C)NC(=O)[C@H](CCC(N)=O)NC(=O)CNC(=O)[C@H](CCC(=O)O)NC(=O)[C@H](CC(C)C)NC(=O)[C@H](Cc1ccc(O)cc1)NC(=O)[C@H](CO)NC(=O)[C@H](CO)NC(=O)[C@@H](NC(=O)[C@H](CC(=O)O)NC(=O)[C@H](CO)NC(=O)[C@@H](NC(=O)[C@H](Cc1ccccc1)NC(=O)[C@@H](NC(=O)CNC(=O)[C@H](CCC(=O)O)NC(=O)[C@H](C)NC(=O)[C@@H](N)Cc1cnc[nH]1)[C@@H](C)O)[C@@H](C)O)C(C)C)C(=O)N[C@@H](CCC(=O)O)C(=O)N[C@@H](Cc1ccccc1)C(=O)N[C@H](C(=O)N[C@@H](C)C(=O)N[C@@H](Cc1c[nH]c2ccccc12)C(=O)N[C@@H](CC(C)C)C(=O)N[C@H](C(=O)N[C@@H](CCCNC(=N)N)C(=O)NCC(=O)N[C@@H](CCCNC(=N)N)C(=O)NCC(=O)O)C(C)C)[C@@H](C)CC)C(=O)O", "note": "[LIRAGLUTIDE]", "values": [{"measurement": "Activity", "setting": "[21]", "value": 13, "unit": "%"}, {"measurement": "Activity", "setting": "[22]", "value": -8.6, "unit": "%"}, {"measurement": "Activity", "setting": "[23]", "value": 17.4, "unit": "%"}, {"measurement": "Activity", "setting": "[24]", "value": -7.9, "unit": "%"}, {"measurement": "Activity", "setting": "[25]", "value": -11.6, "unit": "%"}]}]}
